Where two headings read alike, the source gives them in different places.
Experiments:
[1] = test system: human lung cancer strain NCI-H441; test: NCI-H441 cell proliferation inhibitory activity (CellTiter-Glo, 4 days); format: cell-based; conditions: read-out: NCl-H441 IC50
Summary of the method: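 Step one: dispense the test compound in serial DMSO dilutions. Step three: add the reagent and measure […].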

HRAS wild-type protein = HRAS wild-type protein (Homo sapiens, UniProt P01112); test: Binding to HRAS by surface plasmon resonance (SPR), KD and KD ratio to KRAS
Sequence of HRAS wild-type protein (P01112 whole entry): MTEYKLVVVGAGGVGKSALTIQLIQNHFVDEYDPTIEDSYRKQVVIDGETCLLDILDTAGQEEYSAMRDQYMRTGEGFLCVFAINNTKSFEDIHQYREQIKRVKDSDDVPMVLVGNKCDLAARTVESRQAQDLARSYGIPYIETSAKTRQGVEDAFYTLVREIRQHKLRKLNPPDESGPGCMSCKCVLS
Summary of the method: (§1)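 Captured GDP-RAS (~100–300 RU) was exposed to increasing compound concentrations, 75 s per step, in running buffer with 10 µM GDP, 10 mM MgCl2 and 4% DMSO at pH 7.4.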

[2] = target: GDP-bound KRAS wild-type protein (Homo sapiens, UniProt P01116); test: Binding to KRAS by surface plasmon resonance (SPR), dissociation constant KD
Sequence of GDP-bound KRAS wild-type protein (P01116 1-188 isoform P01116-2): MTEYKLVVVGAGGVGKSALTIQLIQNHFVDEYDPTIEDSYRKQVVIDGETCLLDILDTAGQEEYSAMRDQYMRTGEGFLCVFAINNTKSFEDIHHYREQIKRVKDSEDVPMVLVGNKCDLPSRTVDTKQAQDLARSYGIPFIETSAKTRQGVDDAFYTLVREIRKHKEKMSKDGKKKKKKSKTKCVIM
Summary of the method: as §1

[3] = target: GDP-bound NRAS wild-type protein (Homo sapiens, UniProt P01111); test: Binding to NRAS by surface plasmon resonance (SPR), KD and KD ratio to KRAS
Sequence of GDP-bound NRAS wild-type protein (P01111 whole entry): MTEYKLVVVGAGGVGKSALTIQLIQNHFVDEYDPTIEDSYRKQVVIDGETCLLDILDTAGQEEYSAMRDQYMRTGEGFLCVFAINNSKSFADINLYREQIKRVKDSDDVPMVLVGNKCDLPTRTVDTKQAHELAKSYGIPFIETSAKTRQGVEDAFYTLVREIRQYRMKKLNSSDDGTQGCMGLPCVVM
Summary of the method: as §1

[4] = 50% proliferation inhibitory concentration, four days
[5] = ratio of KD with respect to HRAS wild-type protein to KD with respect to KRAS
[6] = Single Cycle Kinetics, 1:1 binding model
[7] = ratio of KD with respect to GDP-bound NRAS wild-type protein to KD with respect to KRAS
[8] = ratio of KD for HRAS wild-type protein to KD for KRAS
[9] = ratio of KD for GDP-bound NRAS wild-type protein to KD for KRAS

Row | SMILES | IC50 [1, 4] | Kd [2, 6] | IC50 ([1]; NCI-H441 cells, 4 days) | Kd ([2]; Single Cycle Kinetics) | Kd ([2]; 1:1 binding model) | HRAS /KRAS (HRAS wild-type protein; [5]) | NRAS /KRAS [3, 7] | HRAS /KRAS (HRAS wild-type protein; [8]) | NRAS /KRAS [3, 9]
1 | C#CC[C@H]1C(=O)N[C@@H]([C@@H](C)CC)C(=O)N2CCC[C@H]2C(=O)N(C)[C@H]2C/C=C\CCN(C2=O)[C@@H](Cc2ccc(C(F)(F)F)cc2)C(=O)N(C)CC(=O)N[C@@H](CCc2ccc(C(F)(F)F)c(OC)c2)C(=O)N2C[C@H](OCC)C[C@H]2C(=O)OC2(CCC2)C(=O)N(C)[C@@H](C2CCCC2)C(=O)N(C)[C@H](C(=O)N(C)C)CC(=O)N1C [PP3371] |  |  | 5.4 nM | 0.33 nM |  |  |  | A (a compound having 10 or more and less than 20 is denoted as A) | A (a compound having 10 or more and less than 20 is denoted as A)
2 | CCO[C@@H]1C[C@H]2C(=O)NC3(CCC3)C(=O)N(C)[C@@H](C3CCCC3)C(=O)N(C)[C@H](C(=O)N(C)C)CC(=O)N(C)[C@@H](CC3CC3)C(=O)N[C@@H]([C@@H](C)CC)C(=O)N(C)CC(=O)N(C)[C@H]3C/C=C\CCN(C3=O)[C@@H](Cc3ccc(F)cc3C)C(=O)N(C)CC(=O)N[C@@H](CCc3ccc(Cl)c(Cl)c3)C(=O)N2C1 [PP1476] | 216 nM | 1 nM |  |  |  | B (a compound having 3 or more and less than 10 is denoted as B) | A (a compound having 10 or more and less than 20 is denoted as A) |  | 
3 | CCO[C@@H]1C[C@H]2C(=O)NC3(CCC3)C(=O)N(C)[C@@H](C(CC)CC)C(=O)N(C)[C@H](C(=O)N(C)C)CC(=O)N(C)[C@@H](C)C(=O)N[C@@H]([C@@H](C)CC)C(=O)N(C)CC(=O)N(C)[C@H]3C/C=C\CCN(C3=O)[C@@H](Cc3ccc(C(F)(F)F)cc3)C(=O)N(C)CC(=O)N[C@@H](CCc3ccc4sccc4c3)C(=O)N2C1 [PP1222] | 301 nM | 1.2 nM |  |  |  | A (a compound having 10 or more and less than 20 is denoted as A) | A (a compound having 10 or more and less than 20 is denoted as A) |  | 
4 | CCC(CC)[C@H]1C(=O)N(C)[C@H](C(=O)N(C)C)CC(=O)N(C)[C@@H](COC)C(=O)N[C@@H]([C@@H](C)CC)C(=O)N(C)CC(=O)N(C)[C@H]2C/C=C\CCN(C2=O)[C@@H](CC2CCCCC2)C(=O)N(C)CC(=O)N[C@@H](CCc2ccc(C(F)(F)F)c(OC)c2)C(=O)N2C[C@@H](C)C[C@H]2C(=O)NC2(CC(C)(C)C2)C(=O)N1C [PP2466] |  |  | 170 nM |  | 3.9 nM |  |  | A (a compound having 10 or more and less than 20 is denoted as A) | A (a compound having 10 or more and less than 20 is denoted as A)
5 | CCO[C@@H]1C[C@H]2C(=O)NC3(CCC3)C(=O)N(C)[C@@H](C3CCCC3)C(=O)N(C)[C@H](C(=O)N3CCOCC3)CC(=O)N(C)[C@@H](C)C(=O)N[C@@H]([C@@H](C)CC)C(=O)N(C)CC(=O)N(C)[C@H]3CCCCCN(C3=O)[C@@H](Cc3ccc(F)cc3)C(=O)N(C)CC(=O)N[C@@H](CCc3cc(F)c(C(F)(F)F)c(F)c3)C(=O)N2C1 [PP1175] | 23.5 nM | 0.16 nM |  |  |  | B (a compound having 3 or more and less than 10 is denoted as B) | B (a compound having 3 or more and less than 10 is denoted as B) |  | 
6 | CCC[C@H]1C(=O)N[C@@H](CC(C)C)C(=O)N(CCOC)CC(=O)N(C)[C@H]2C/C=C\CCN(C2=O)[C@@H](Cc2ccc(C)cc2)C(=O)N(C)CC(=O)N[C@@H](CCc2ccc(C(F)(F)F)c(Cl)c2)C(=O)N2C[C@H](OCC)C[C@H]2C(=O)NC2(CCC2)C(=O)N(C)[C@@H](C2CCCC2)C(=O)N(C)[C@H](C(=O)N(C)C)CC(=O)N1C [PP2546] |  |  | 295 nM |  | 4.7 nM |  |  | B (a compound having 3 or more and less than 10 is denoted as B) | B (a compound having 3 or more and less than 10 is denoted as B)

Further lines, with some results ahead:

Row | IC50 [1, 4] | Kd [2, 6] | IC50 ([1]; NCI-H441 cells, 4 days) | Kd ([2]; Single Cycle Kinetics) | Kd ([2]; 1:1 binding model) | SMILES | HRAS /KRAS (HRAS wild-type protein; [5]) | NRAS /KRAS [3, 7] | HRAS /KRAS (HRAS wild-type protein; [8]) | NRAS /KRAS [3, 9]
7 | 69 nM | 0.36 nM |  |  |  | CCC[C@H]1C(=O)N[C@@H]([C@@H](C)CC)C(=O)N(C)CC(=O)N(C)[C@H]2C/C=C\CCN(C2=O)[C@@H](Cc2ccc(C(F)(F)F)cc2)C(=O)N(C)CC(=O)N[C@@H](CCc2ccc3sccc3c2)C(=O)N2C[C@H](OCC)C[C@H]2C(=O)NC2(CCC2)C(=O)N(C)[C@@H](C2CCCC2)C(=O)N(C)[C@H](C(=O)N(C)C)CC(=O)N1C [PP1256] | A (a compound having 10 or more and less than 20 is denoted as A) | A (a compound having 10 or more and less than 20 is denoted as A) |  | 
8 |  |  | 8.1 nM | 0.22 nM |  | CCCC[C@H]1C(=O)N[C@@H]([C@@H](C)CC)C(=O)N(C)CC(=O)N(C)[C@H]2C/C=C\CCN(C2=O)[C@@H](Cc2ccc(C)cc2)C(=O)N(C)CC(=O)N[C@@H](CCc2ccc(C(F)(F)F)c(OC)c2)C(=O)N2C[C@H](OCC)C[C@H]2C(=O)OC2(CCC2)C(=O)N(C)[C@@H](C2CCCC2)C(=O)N(C)[C@H](C(=O)N(C)C)CC(=O)N1C [PP3385] |  |  | B (a compound having 3 or more and less than 10 is denoted as B) | A (a compound having 10 or more and less than 20 is denoted as A)
9 |  |  | 20 nM |  | 0.49 nM | CCC(CC)[C@H]1C(=O)N(C)[C@H](C(=O)N(C)C)CC(=O)N(C)[C@@H](COC)C(=O)N[C@@H]([C@@H](C)CC)C(=O)N(C)CC(=O)N(C)[C@H]2C/C=C\CCN(C2=O)[C@@H](Cc2ccc(C(F)(F)F)cc2)C(=O)N(C)CC(=O)N[C@@H](CCc2ccc(Cl)c(Cl)c2)C(=O)N2C[C@H](OC(C)C)C[C@H]2C(=O)NC2(CC(C)(C)C2)C(=O)N1C [PP2533] |  |  | A (a compound having 10 or more and less than 20 is denoted as A) | AA (a compound having 20 or more is denoted as AA)
10 |  |  | 9.9 nM | 0.18 nM |  | CCO[C@@H]1C[C@H]2C(=O)NC3(CC(C)(C)C3)C(=O)N(C)[C@@H](C3CCCC3)C(=O)N(C)[C@H](C(=O)N(C)CC)CC(=O)N(C)[C@@H]([C@H](C)OC)C(=O)N[C@@H]([C@@H](C)CC)C(=O)N(C)CC(=O)N(C)[C@H]3C/C=C\CCN(C3=O)[C@@H](Cc3ccc(C(F)(F)F)cc3)C(=O)N(C)CC(=O)N[C@@H](CCc3cc(F)c(C(F)(F)F)c(F)c3)C(=O)N2C1 [PP3217] |  |  | B (a compound having 3 or more and less than 10 is denoted as B) | A (a compound having 10 or more and less than 20 is denoted as A)
11 | 14.1 nM | 0.22 nM |  |  |  | CCO[C@@H]1C[C@H]2C(=O)NC3(CCC3)C(=O)N(C)[C@@H](C3CCCC3)C(=O)N(C)[C@H](C(=O)N3CCOCC3)CC(=O)N(C)[C@@H](CC3CCC3)C(=O)N[C@@H]([C@@H](C)CC)C(=O)N(C)CC(=O)N(C)[C@H]3C/C=C\CCN(C3=O)[C@@H](Cc3ccc(C(F)(F)F)cc3)C(=O)N(C)CC(=O)N[C@@H](CCc3cc(F)c(C(F)(F)F)c(F)c3)C(=O)N2C1 [PP1422] | A (a compound having 10 or more and less than 20 is denoted as A) | AA (a compound having 20 or more is denoted as AA) |  | 
12 | 51 nM | 0.32 nM |  |  |  | CCO[C@@H]1C[C@H]2C(=O)NC3(CCC3)C(=O)N(C)[C@@H](C3CCCC3)C(=O)N(C)[C@H](C)CC(=O)N(C)[C@@H](CC3CC3)C(=O)N[C@@H]([C@@H](C)CC)C(=O)N(C)CC(=O)N(C)[C@H]3C/C=C\CCN(C3=O)[C@@H](Cc3ccc(C)cc3)C(=O)N(C)CC(=O)N[C@@H](CCc3cc(F)c(C(F)(F)F)c(F)c3)C(=O)N2C1 [PP1410] | B (a compound having 3 or more and less than 10 is denoted as B) | B (a compound having 3 or more and less than 10 is denoted as B) |  | 
13 |  |  | 15.3 nM | 0.31 nM |  | CCO[C@@H]1C[C@H]2C(=O)NC3(CC(C)(C)C3)C(=O)N(C)[C@@H](C3CCCC3)C(=O)N(C)[C@H](C(=O)N(C)C)CC(=O)N(C)[C@@H]([C@H](C)OC)C(=O)N[C@@H]([C@@H](C)CC)C(=O)N(C3CC3)CC(=O)N(C)[C@H]3C/C=C\CCN(C3=O)[C@@H](Cc3ccc(C(F)(F)F)cc3)C(=O)N(C)CC(=O)N[C@@H](CCc3cc(F)c(C(F)(F)F)c(F)c3)C(=O)N2C1 [PP3175] |  |  | A (a compound having 10 or more and less than 20 is denoted as A) | A (a compound having 10 or more and less than 20 is denoted as A)
14 |  |  | 4.7 nM | 0.51 nM |  | CCO[C@@H]1C[C@H]2C(=O)OC3(CCC3)C(=O)N(C)[C@@H](C3CCCC3)C(=O)N(C)[C@H](C(=O)N(C)C)CC(=O)N(C)[C@@H]([C@@H](C)OC)C(=O)N[C@@H]([C@@H](C)CC)C(=O)N(C3CC3)CC(=O)N(C)[C@H]3C/C=C\CCN(C3=O)[C@@H](Cc3ccc(C)cc3)C(=O)N(C)CC(=O)N[C@@H](CCc3ccc(C(F)(F)F)c(OC)c3)C(=O)N2C1 [PP3393] |  |  | B (a compound having 3 or more and less than 10 is denoted as B) | A (a compound having 10 or more and less than 20 is denoted as A)
15 |  |  | 19.6 nM | 0.53 nM |  | CCO[C@@H]1C[C@H]2C(=O)NC3(CC(C)(C)C3)C(=O)N(C)[C@@H](C3CCCC3)C(=O)N(C)[C@H](C(=O)N(C)CC)CC(=O)N(C)[C@@H]([C@H](C)OC)C(=O)N[C@@H]([C@@H](C)CC)C(=O)N(C3CC3)CC(=O)N(C)[C@H]3C/C=C\CCN(C3=O)[C@@H](Cc3ccc(C(F)(F)F)cc3)C(=O)N(C)CC(=O)N[C@@H](CCc3ccc(C(F)(F)F)c(OC)c3)C(=O)N2C1 [PP3219] |  |  | A (a compound having 10 or more and less than 20 is denoted as A) | A (a compound having 10 or more and less than 20 is denoted as A)

Source: patent EP4603105A1, “PHARMACEUTICAL COMPOSITION CONTAINING CYCLIC COMPOUND HAVING SELECTIVE KRAS INHIBITORY EFFECT AGAINST HRAS AND NRAS” (CHUGAI SEIYAKU KABUSHIKI KAISHA, priority 2022, dated 2024)
